Results as given in the NIST ThermoML archive (doi:10.1016/j.jct.2018.03.017).
± gives the expanded uncertainty stated by the source.

Columns and labels:
[1] = 96 kPa, Liquid, Pycnometric method
[2] = xn = mol fraction of the nth substance listed; conditions: 96 kPa, Liquid, Pycnometric method, x2 = 0

Q: Which mass density ([1]; 288.15 K) does the source give for `C1CCC2=NCCCN2CC1` [1,8-diaza-7-bicyclo[5.4.0]undecene] here?
A: 1020.6 ± 8.2 kg/m3

Q: And the mass density ([1]; 293.15 K)?
A: 1017.1 ± 8.2 kg/m3

Q: What about the mass density ([1]; 298.15 K) of the same compound?
A: 1014.1 ± 8.2 kg/m3

Q: And the mass density ([1]; 303.15 K)?
A: 1010.9 ± 8.2 kg/m3

Q: And the mass density ([1]; 308.15 K)?
A: 1007.4 ± 8.2 kg/m3

Q: What about the mass density ([1]; 313.15 K) of the same compound?
A: 1004.6 ± 8.2 kg/m3

Q: What about the mass density ([1]; 318.15 K) of the same compound?
A: 1000.8 ± 8.2 kg/m3

Q: What about the mass density ([1]; 323.15 K) of the same compound?
A: 998.4 ± 8.2 kg/m3

Q: What about the mass density ([1]; 328.15 K) of the same compound?
A: 994.2 ± 8.2 kg/m3

Q: Which results are given for `OCC(O)CO` [glycerol]?
A: mass density ([1]; 288.15 K): 1262.7 ± 8.2 kg/m3; mass density ([1]; 293.15 K): 1260.5 ± 8.2 kg/m3; mass density ([1]; 298.15 K): 1257.2 ± 8.2 kg/m3; mass density ([1]; 303.15 K): 1254.8 ± 8.2 kg/m3; mass density ([1]; 308.15 K): 1251.5 ± 8.2 kg/m3; mass density ([1]; 313.15 K): 1248.9 ± 8.2 kg/m3; mass density ([1]; 318.15 K): 1246 ± 8.2 kg/m3; mass density ([1]; 323.15 K): 1242.4 ± 8.2 kg/m3; mass density ([1]; 328.15 K): 1240.5 ± 8.2 kg/m3

Q: Which mass density ([2]; 288.15 K) does the source give for `OCC(O)CO` [glycerol] + C1CCC2=NCCCN2CC1 here?
A: 1262.7 ± 8.2 kg/m3

Q: And the mass density ([2]; 293.15 K)?
A: 1260.5 ± 8.2 kg/m3

Q: What about the mass density ([2]; 298.15 K) of the same compound?
A: 1257.2 ± 8.2 kg/m3

Q: What about the mass density ([2]; 303.15 K) of the same compound?
A: 1254.8 ± 8.2 kg/m3

Q: And the mass density ([2]; 308.15 K)?
A: 1251.5 ± 8.2 kg/m3

Q: What about the mass density ([2]; 313.15 K) of the same compound?
A: 1248.9 ± 8.2 kg/m3

Q: And the mass density ([2]; 318.15 K)?
A: 1246 ± 8.2 kg/m3

Q: What about the mass density ([2]; 323.15 K) of the same compound?
A: 1242.4 ± 8.2 kg/m3

Q: What about the mass density ([2]; 328.15 K) of the same compound?
A: 1240.5 ± 8.2 kg/m3
